Assay results reported in ChEMBL document CHEMBL6182942, “Discovery of a Selective, Novel TGF-βR1 Inhibitor GFH018 for the Treatment of Solid Tumors” (J Med Chem, 2025).
Values after ≈ are worked out from the molar mass of the structure shown. Active and inactive are the calls of the source. The rule behind the calls is not given here.

How the values were obtained:
[1] = Volume of distribution at steady state in CD-1 mouse at 1 mg/kg, iv by LC-MS/MS analysis; type: ADME, organism-based; conditions: in vivo, read-out: Vdss
[2] = Oral bioavailability in CD-1 mouse at 5 mg/kg via gavage by LC-MS/MS analysis; type: ADME, organism-based; conditions: in vivo
[3] = molecular target: T1, TGF-beta receptor type-1 (Homo sapiens, UniProt P36897); assay: Inhibition of human TGFbetaR1 expressed in HEK293 cells co-expressing SBE assessed as reduction in TGFbeta/activin A-induced SMAD phosphorylation preincubated for 4 to 5 hrs followed by TGFbeta/activin A stimulation and measured after 18 hrs by luciferase reporter gene assay; type: cell-based
T1 sequence (P36897 whole entry): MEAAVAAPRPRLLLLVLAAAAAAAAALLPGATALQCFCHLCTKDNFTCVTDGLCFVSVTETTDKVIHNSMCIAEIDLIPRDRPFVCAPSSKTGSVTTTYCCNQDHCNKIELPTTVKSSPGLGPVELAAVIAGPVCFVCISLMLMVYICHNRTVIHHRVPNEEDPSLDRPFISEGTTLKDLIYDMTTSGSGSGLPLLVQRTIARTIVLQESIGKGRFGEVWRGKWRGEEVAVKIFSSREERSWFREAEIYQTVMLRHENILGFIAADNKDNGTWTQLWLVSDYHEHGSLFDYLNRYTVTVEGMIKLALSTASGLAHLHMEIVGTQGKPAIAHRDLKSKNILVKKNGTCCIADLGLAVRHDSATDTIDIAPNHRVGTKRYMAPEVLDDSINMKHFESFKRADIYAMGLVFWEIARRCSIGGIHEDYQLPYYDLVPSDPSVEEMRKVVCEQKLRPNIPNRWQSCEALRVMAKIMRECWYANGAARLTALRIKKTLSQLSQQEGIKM

[4] = Kinetic solubility of the compound in pH 7.4 aqueous buffer; type: physicochemical; conditions: read-out: Kinetic_solubility
[5] = Protein binding in Sprague-Dawley rat plasma at 0.2 to 10 uM measured after 4 hrs by equilibrium dialysis based LC-MS/MS analysis; type: ADME, cell-free; conditions: dose 0.2-10 µM, read-out: PPB (converted)
[6] = molecular target: Cytochrome P450 2C19 (Homo sapiens, UniProt P33261); assay: Inhibition of CYP2C19 in human liver microsomes using (S)-mephenytoin as substrate preincubated for 10 mins followed by NADPH regeneration system addition and measured after 20 mins by LC-MS/MS analysis; type: ADME, Microsome
Sequence of Cytochrome P450 2C19 (P33261 whole entry): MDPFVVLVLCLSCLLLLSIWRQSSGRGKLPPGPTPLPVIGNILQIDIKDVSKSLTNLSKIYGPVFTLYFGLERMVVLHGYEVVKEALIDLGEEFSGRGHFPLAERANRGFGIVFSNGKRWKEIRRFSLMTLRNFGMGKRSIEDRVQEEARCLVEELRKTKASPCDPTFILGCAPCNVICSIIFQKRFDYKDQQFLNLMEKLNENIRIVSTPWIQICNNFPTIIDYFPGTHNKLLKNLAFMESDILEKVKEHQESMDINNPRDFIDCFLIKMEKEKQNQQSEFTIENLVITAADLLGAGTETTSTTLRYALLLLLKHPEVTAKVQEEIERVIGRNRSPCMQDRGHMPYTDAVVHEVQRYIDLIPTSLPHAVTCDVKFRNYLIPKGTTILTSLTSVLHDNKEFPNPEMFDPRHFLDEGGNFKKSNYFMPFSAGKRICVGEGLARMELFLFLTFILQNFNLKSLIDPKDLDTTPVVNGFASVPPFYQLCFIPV

[7] = AUC (0 to last) in Sprague-Dawley rat at 1 mg/kg, iv by LC-MS/MS analysis; type: ADME, organism-based; conditions: in vivo
[8] = Clearance in Beagle dog at 1 mg/kg, iv by LC-MS/MS analysis; type: ADME, organism-based, Canis lupus familiaris; conditions: in vivo
[9] = test system: H22; assay: Antitumor activity against mouse H22 cells implanted in BALB/c mouse assessed as tumor growth inhibition at 15 mg/kg, po administered twice daily for 11 days and measured 3 times per week during compound dosing relative to control; type: functional; conditions: H22, 264 h, time 11 day, read-out: TGI
[10] = test system: T-cell; assay: Immunostimulatory activity in TGFbeta/anti-CD3 stimulated BALB/c mouse naive T cells assessed as reduction in Treg induction at 0.1 to 10 uM measured after 4 days by immunostaining based flow cytometry; type: functional; conditions: dose 0.1-10 µM, time 4.0 day
[11] = test system: CD14-positive cell; assay: Immunostimulatory activity in human PBMC derived M-CSF stimulated CD14-positive cells assessed as reduction in IL-10 level at 0.1 to 10 uM supplemented with fresh medium containing compound on day 1, 3 and 5 followed by M-CSF/IL-4/IL-13 stimulation for 2 days with subsequent LPS induction and measured after 16 hrs; type: functional, cell-based; conditions: dose 0.1-10 µM, time 7.0 day
[12] = molecular target: Activin receptor type-1B (Homo sapiens) (UniProt P36896); assay: Inhibition of ALK4 (unknown origin) assessed as residual activity at 1 uM relative to control
Sequence of Activin receptor type-1B (Homo sapiens) (P36896 whole entry): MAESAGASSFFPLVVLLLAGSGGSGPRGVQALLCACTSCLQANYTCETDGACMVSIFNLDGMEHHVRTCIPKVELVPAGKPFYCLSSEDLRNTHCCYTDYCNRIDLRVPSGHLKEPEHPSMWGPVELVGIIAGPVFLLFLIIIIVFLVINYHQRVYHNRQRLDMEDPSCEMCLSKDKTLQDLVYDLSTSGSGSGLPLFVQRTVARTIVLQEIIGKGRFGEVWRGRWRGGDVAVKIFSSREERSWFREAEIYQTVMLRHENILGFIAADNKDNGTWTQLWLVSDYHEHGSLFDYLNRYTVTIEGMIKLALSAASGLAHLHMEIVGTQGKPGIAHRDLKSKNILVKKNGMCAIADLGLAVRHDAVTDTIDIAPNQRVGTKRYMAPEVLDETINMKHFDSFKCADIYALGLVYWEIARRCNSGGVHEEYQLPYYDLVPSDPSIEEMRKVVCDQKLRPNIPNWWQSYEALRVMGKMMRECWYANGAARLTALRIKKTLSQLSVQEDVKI

Compound: Cc1cccc(-c2nn3c(c2-c2ccc4ncnn4c2/C=C/C(N)=O)CCC3)n1
- Vd [1]: 1.4 L/kg
- bioavailability [2]: 8.74%
- IC50 [3]: 105 nM
- solubility kinetic [4]: 185 µM (≈ 71.5 µg/mL)
- fraction unbound at 4 h, up to 10 µM [5]: 0.376
- IC50 [6]: > 100000 nM
- AUClast [7]: 1332 nM.hr/ml
- clearance [8]: 9.29 mL/min/kg
- inhibition in vivo at 15 mg/kg [9]: 50.8%
- Activity [10]: Active
- Activity [11]: Active
- Activity [12]: < 50%
